Measured values published in publication PMC8228365, “Degradation Products of Tryptophan in Cell Culture Media: Contribution to Color and Toxicity” (International Journal of Molecular Sciences, 2021).
Like-named read-outs stand apart in the source and are kept apart here.

Key:
CHOK1 GS cells = test: CellTiter-Glo cytotoxicity assay in CHOK1 GS cell line; assay type: cell-based, Chinese hamster; details: Cricetulus griseus
Method: To assay the potential toxicity induced in the CHO cell culture by the Trp degradation products found in this study, a cytotoxicity assay CellTiter-Glo® Luminescent Cell Viability Assay (Cat #G7572, Promega, Madison, WI, USA) was used, following the manufacturer’s instructions. Briefly, the cells were seeded with 25,000 viable cells per cavity of a 96-well opaque white cell culture plate (Thermo Fisher, Waltham, MA, USA) in 80 µL of a pre-warmed medium. […] A DMSO control was added in the same concentration range as the tryptophan degradation compounds were diluted.

CHOK1 cells = test: CellTiter-Glo cytotoxicity assay in CHOK1 cell line; assay type: cell-based, Chinese hamster; details: Cricetulus griseus
Method: (§1) To assay the potential toxicity induced in the CHO cell culture by the Trp degradation products found in this study, a cytotoxicity assay CellTiter-Glo® Luminescent Cell Viability Assay (Cat #G7572, Promega, Madison, WI, USA) was used, following the manufacturer’s instructions. Briefly, the cells were seeded with 25,000 viable cells per cavity of a 96-well opaque white cell culture plate (Thermo Fisher, Waltham, MA, USA) in 80 µL of a pre-warmed medium. Tryptophan degradation compounds were added in triplicates to the cells, ranging from 1 mM to 46 nM. A DMSO control was added in the same concentration range as the tryptophan degradation compounds were diluted. The dose response curves were fitted with a 4PL model by GraphPad Prism v.7 (GraphPad Software, San Diego, CA, USA) after luminescence readout with an EnVision 2104 Multilabel Reader (Perkin Elmer, Waltham, MA, USA).

CHOZN 6 cells = test: CellTiter-Glo cytotoxicity assay in CHOZN 6 cell line; assay type: cell-based, Chinese hamster; details: Cricetulus griseus, read-out: [GI50] CHOZN 6
Method: as §1

CHOZN 10 cells = test: CellTiter-Glo cytotoxicity assay in CHOZN 10 cell line; assay type: cell-based, Chinese hamster; details: Cricetulus griseus, read-out: [GI50] CHOZN 10
Method: as §1

CHO cells = test: CHO cell toxicity summarised across the four CHO cell lines; assay type: cell-based, Chinese hamster; details: Cricetulus griseus, read-out: GI50 across all cell lines
Method: as §1

[1] = Color measurement (ΔE*) of standards spiked into water; assay type: physicochemical; details: theoretical 500 µM, 1% DMSO, ΔE* > 1 deemed significant
Method: (§2) Compounds were dissolved in DMSO at 50 mM and then spiked into the solutions to achieve a final compound concentration of 500µM. Some of the tested compounds formed a precipitate immediately upon spiking of the DMSO solution. As the precipitates in solution can interfere with the absorption measurement, each sample was centrifuged prior to taking absorption measurements, meaning that the final concentrations were not all at 500 µM. […] In stability experiments, eight of these nine compounds (all except 46) were present in at least one condition in the degraded water samples, and four of these nine compounds (28, 31, 38, and 46) were present in the degraded feed.
(§3) Absorbance measurements were taken in the range of 380 nm to 780 nm (20 nm steps) of 100 µL of the samples in four technical replicates (Envision, Perkin Elmer, Waltham, MA, USA). From the absorbance values, the change in color was calculated using L*a*b* and ΔE* values according to DIN 5033-3 and DIN 6174 norms. The CIE 1931 standard observer (2°) and the D65 illuminant were selected.
(§4) Chemical standards were prepared as 50 mM stocks in DMSO and then spiked into the aqueous solutions (either water or feed) to achieve a theoretical compound concentration of 500 µM (1% DMSO). The solutions were centrifuged, and the absorbance measurements of these solutions was measured and converted to ΔE* values as described above. The control condition was pure DMSO (1% v/v).

[2] = Color measurement (ΔE*) of standards spiked into feed; assay type: physicochemical; details: theoretical 500 µM, 1% DMSO, ΔE* > 1 deemed significant
Method: as §2, §3, §4

human cancer cell lines = test system: human cancer cell lines; set-up: method as in PMID 24930832; details: cited from earlier work
bacteria = test system: bacteria; set-up: method as in PMID 24930832; details: cited from earlier work
[3] = test system: cancerous and non-cancerous human cell lines; set-up: method as in PMID 28720329, PMID 22819942, PMID 32792961; details: wide range of human cell lines; cited from earlier work

Structure (SMILES) | GI50 (CHOK1 GS cells; CHO-K1, CHOK1 GS cell line, 1 mM to 46 nM, 4PL fit, read-out: [GI50] CHOK1 GS) [µM] | GI50 (CHOK1 cells; CHO-K1, CHOK1 cell line, 1 mM to 46 nM, 4PL fit, read-out: [GI50] CHOK1) [µM] | GI50 (CHOZN 6 cells; CHOZN 6 cell line, 1 mM to 46 nM, 4PL fit) [µM] | GI50 (CHOZN 10 cells; CHOZN 10 cell line, 1 mM to 46 nM, 4PL fit) [µM] | GI50 (CHO cells; across all four CHO cell lines) [µM] | Color change as measured by ΔE* in water [1] | Color change as measured by ΔE* in feed [2] | toxicity in human cancer cell lines (human cancer cell lines) | antibacterial activity (bacteria) | GI50 (CHOK1 GS cells; CHO-K1, read-out: [GI50] CHOK1 GS) [µM] | GI50 (CHOK1 cells; CHO-K1, read-out: [GI50] CHOK1) [µM] | GI50 (CHOZN 6 cells) [µM] | GI50 (CHOZN 10 cells) [µM] | GI50 (CHO cells; CHO) [µM] | toxicity against cancerous and non-cancerous human cell lines [3]
c1ccc2c(-c3nccc4c3[nH]c3ccccc34)c[nH]c2c1 [Compound 34, 1-(1H-Indol-3-yl)-9H-pyrido[3,4-b]indole] | 24 | 10.6 | 12.3 | 13.1 | 10 to 22 | significant color change | significant color change | some toxicity | most potent as an antibacterial agent | – | – | – | – | – | –
O=C1c2ccccc2-n2c1nc1ccccc1c2=O [Compound 39, Tryptanthrin] | – | – | – | – | – | significant color change | significant color change | – | – | < 0.13 | 0.2 | 1.1 | 1.05 | ≤ 1.1 | low micromolar toxicity
